What was measured:
UGT1A3 = target: T1, UGT1A3 (Homo sapiens, UniProt P35503); test: glucuronidation inhibition in human liver microsomes; type: biochemical; conditions: substrate chenodeoxycholic acid; direct inhibition
T1 construct: native enzyme in human liver microsomes
T1 sequence (P35503 29-534): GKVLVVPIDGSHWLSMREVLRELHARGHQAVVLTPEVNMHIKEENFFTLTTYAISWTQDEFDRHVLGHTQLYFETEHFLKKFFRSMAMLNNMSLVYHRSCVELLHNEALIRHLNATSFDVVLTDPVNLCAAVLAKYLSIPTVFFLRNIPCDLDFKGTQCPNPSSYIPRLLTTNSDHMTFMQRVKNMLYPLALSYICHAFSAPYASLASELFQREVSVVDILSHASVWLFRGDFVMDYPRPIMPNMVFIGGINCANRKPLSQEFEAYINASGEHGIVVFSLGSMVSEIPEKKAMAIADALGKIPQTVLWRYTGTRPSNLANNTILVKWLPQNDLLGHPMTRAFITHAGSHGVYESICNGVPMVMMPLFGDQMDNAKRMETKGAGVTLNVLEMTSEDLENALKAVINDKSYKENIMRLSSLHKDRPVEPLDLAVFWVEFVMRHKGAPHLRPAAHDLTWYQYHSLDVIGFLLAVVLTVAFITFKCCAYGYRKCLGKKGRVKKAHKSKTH
Description: glucuronidation inhibition in human liver microsomes on UGT1A3

P‐gp (P‐glycoprotein) = target: T2, P‐gp (P‐glycoprotein) (Homo sapiens, UniProt P08183); test: transport inhibition in Caco-2 monolayers; type: cell-based
T2 construct: gene ABCB1; endogenous transporter in Caco-2 cell monolayers
T2 sequence (P08183 whole entry): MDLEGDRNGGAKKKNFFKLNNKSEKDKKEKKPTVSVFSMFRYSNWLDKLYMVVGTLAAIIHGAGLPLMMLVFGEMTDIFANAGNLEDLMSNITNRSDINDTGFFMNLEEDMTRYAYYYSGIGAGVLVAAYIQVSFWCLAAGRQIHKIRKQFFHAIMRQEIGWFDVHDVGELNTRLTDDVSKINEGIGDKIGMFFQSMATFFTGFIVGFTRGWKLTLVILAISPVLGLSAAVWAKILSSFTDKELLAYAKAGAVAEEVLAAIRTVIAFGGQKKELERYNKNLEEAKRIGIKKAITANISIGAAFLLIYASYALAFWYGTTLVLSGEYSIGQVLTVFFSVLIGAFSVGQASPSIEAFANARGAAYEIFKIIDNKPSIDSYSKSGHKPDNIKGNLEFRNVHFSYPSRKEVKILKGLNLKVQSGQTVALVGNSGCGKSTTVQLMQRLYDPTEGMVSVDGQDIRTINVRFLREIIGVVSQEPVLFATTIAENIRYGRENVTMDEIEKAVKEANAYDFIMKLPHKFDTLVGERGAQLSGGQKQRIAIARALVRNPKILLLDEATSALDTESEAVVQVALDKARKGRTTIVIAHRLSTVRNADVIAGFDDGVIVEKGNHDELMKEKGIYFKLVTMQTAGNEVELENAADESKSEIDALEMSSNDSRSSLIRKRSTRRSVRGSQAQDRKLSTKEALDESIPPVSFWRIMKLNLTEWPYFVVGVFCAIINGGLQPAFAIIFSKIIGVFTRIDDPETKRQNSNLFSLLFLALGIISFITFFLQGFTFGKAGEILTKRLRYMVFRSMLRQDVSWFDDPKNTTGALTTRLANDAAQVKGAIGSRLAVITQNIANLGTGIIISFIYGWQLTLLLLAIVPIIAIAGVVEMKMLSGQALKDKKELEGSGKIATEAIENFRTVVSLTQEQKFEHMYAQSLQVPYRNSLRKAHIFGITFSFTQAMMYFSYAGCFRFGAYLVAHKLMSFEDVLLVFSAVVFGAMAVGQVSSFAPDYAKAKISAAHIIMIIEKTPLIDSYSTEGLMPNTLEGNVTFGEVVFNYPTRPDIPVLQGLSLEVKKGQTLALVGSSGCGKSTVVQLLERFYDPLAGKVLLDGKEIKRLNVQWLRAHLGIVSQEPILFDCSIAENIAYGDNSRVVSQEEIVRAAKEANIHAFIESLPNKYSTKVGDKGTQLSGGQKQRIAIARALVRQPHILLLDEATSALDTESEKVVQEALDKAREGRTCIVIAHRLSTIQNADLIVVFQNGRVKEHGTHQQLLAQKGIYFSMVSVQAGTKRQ
Description: transport inhibition in Caco-2 monolayers on P‐gp (P‐glycoprotein)

CYP2B6 = target: T3, CYP2B6 (Homo sapiens, UniProt P20813); test: CYP activity inhibition in human liver microsomes; type: biochemical; conditions: read-out: IC50 (μM) / Direct inhibition
T3 construct: native enzyme in human liver microsomes
T3 sequence (P20813 1-491): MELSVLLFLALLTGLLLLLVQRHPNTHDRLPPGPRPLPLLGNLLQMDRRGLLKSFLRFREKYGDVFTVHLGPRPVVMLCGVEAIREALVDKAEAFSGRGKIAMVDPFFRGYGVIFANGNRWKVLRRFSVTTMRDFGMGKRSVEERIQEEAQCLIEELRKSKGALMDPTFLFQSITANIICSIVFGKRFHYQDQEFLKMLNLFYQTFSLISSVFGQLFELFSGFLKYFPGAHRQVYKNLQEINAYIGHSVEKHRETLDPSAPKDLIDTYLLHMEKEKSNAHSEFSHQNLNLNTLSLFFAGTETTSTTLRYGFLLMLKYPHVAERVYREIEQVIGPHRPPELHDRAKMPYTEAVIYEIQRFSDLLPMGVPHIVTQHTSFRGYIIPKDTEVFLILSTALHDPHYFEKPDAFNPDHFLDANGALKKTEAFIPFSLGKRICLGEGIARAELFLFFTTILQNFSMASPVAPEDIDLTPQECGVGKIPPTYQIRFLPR
Description: CYP activity inhibition in human liver microsomes on CYP2B6

OAT1 = target: T4, OAT1 (Homo sapiens, UniProt Q4U2R8); test: uptake inhibition in HEK293 cells expressing the transporter; type: cell-based
T4 construct: gene SLC22A6; expressed in HEK293 cells
T4 sequence (Q4U2R8 1-563): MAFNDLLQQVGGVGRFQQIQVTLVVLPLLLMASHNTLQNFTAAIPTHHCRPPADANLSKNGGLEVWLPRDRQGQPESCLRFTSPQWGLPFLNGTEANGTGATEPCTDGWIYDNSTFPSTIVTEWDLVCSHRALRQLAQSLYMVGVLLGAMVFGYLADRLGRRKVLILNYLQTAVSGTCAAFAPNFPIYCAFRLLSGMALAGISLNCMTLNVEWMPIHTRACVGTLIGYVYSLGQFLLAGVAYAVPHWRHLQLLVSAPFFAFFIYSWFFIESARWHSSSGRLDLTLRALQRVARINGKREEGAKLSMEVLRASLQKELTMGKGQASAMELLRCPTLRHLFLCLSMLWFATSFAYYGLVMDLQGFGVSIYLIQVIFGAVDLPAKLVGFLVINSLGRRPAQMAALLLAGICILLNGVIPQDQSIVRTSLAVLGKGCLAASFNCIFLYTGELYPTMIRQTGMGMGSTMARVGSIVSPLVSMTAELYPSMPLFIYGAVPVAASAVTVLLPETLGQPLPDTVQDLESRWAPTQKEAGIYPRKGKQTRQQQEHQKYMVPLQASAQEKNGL
Description: uptake inhibition in HEK293 cells expressing the transporter on OAT1

CYP2C8 = target: T5, CYP2C8 (Homo sapiens, UniProt P10632); test: CYP activity inhibition in human liver microsomes; type: biochemical; conditions: read-out: IC50 (μM) / Direct inhibition
T5 construct: native enzyme in human liver microsomes
T5 sequence (P10632 1-490): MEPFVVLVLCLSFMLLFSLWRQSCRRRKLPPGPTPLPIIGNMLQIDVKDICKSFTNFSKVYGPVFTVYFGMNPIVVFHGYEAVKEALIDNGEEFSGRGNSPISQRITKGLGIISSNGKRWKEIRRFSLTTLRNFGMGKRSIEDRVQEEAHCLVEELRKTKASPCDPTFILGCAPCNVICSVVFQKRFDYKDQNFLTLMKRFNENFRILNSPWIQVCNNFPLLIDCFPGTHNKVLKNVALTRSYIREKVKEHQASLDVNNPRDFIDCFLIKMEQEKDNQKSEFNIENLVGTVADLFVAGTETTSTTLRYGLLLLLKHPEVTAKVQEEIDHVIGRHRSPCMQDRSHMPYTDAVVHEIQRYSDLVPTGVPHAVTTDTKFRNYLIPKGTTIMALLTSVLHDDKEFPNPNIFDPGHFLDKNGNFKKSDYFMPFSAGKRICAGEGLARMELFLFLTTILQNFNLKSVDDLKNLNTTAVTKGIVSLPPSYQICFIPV
Description: CYP activity inhibition in human liver microsomes on CYP2C8

COC[C@H]1CN(C(=O)[C@]2(F)CN(C3CCCC3)C[C@H]2c2ccc(OC)cc2)C[C@@H]1c1ccc(C(F)(F)F)cc1N1CCC(C(=O)O)CC1 [dersimelagon]
IC50 (UGT1A3): 22.6 µM
IC50 (P‐gp (P‐glycoprotein)): 0.349 µM
IC50 (CYP2B6): 48.9 µM
IC50 (OAT1): 71.2 µM
IC50 (CYP2C8): 24.2 µM
